Experimental data: ChEMBL document CHEMBL5523667, “Blood-stage antimalarial activity, favourable metabolic stability and in vivo toxicity of novel piperazine linked 7-chloroquinoline-triazole conjugates” (Eur J Med Chem, 2024)
Active and inactive are the calls of the source. The rule behind the calls is not given here.

Tests used:
Plasmodium falciparum [1] = experiment: Antimalarial activity against synchronized ring stage Plasmodium falciparum assessed as accumulation of free heme at 1 to 4 uM incubated for 20 hrs by absorbance based analysis; assay type: functional, organism-based; settings: dose 1-4 µM
Plasmodium falciparum [2] = experiment: Antimalarial activity against synchronized ring stage Plasmodium falciparum assessed as reduction in hemozoin level at 1 to 4 uM incubated for 20 hrs by absorbance based analysis; assay type: functional, organism-based; settings: dose 1-4 µM
Falcipain 2 [3] = molecular target: T1, Falcipain 2 (Plasmodium falciparum, UniProt Q9N6S8); experiment: Inhibition of N-terminal 6His-tagged recombinant Plasmodium falciparum FP2 expressed in Escherichia coli M15 using Z-Phe-Arg-AMC as substrate measured after 30 mins by microplate reader analysis
T1 sequence (Q9N6S8 whole entry): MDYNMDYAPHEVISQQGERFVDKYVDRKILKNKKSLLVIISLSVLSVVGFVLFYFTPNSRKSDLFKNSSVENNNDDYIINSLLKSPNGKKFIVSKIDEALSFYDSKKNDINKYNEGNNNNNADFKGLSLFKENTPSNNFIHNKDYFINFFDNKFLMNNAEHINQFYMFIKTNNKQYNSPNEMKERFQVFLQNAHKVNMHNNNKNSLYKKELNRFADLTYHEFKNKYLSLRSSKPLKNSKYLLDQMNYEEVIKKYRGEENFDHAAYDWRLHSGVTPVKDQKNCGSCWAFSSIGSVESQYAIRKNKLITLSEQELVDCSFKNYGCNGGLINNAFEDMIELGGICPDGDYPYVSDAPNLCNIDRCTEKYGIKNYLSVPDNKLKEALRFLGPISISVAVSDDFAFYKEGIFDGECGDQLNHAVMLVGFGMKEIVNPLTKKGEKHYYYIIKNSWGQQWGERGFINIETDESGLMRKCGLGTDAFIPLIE

[4] = molecular target: T2, Falcipain 2 (Plasmodium falciparum) (UniProt Q9N6S8); experiment: Binding affinity to N-terminal 6His-tagged recombinant Plasmodium falciparum FP2 expressed in Escherichia coli M15 assessed as dissociation rate constant (Koff) by surface plasmon resonance analysis
T2 sequence (whole entry): T1 sequence (Q9N6S8 whole entry)

[5] = Toxicity in mouse assessed as impairment of short-term memory at 200 mg/kg by novel object recognition test (reference value: 11.87 +/- 3.82 ); assay type: organism-based; settings: in vivo
[6] = molecular target: T2, Falcipain 2 (Plasmodium falciparum); experiment: Binding affinity to N-terminal 6His-tagged recombinant Plasmodium falciparum FP2 expressed in Escherichia coli M15 assessed as association rate constant (Kon) by surface plasmon resonance analysis
[7] = Toxicity in mouse assessed as total distance travelled at 200 mg/kg measured over 5 mins by open field arena test (reference value: 12.45 +/- 1.48 meter); assay type: organism-based; settings: in vivo
Falcipain-3 = molecular target: T3, Falcipain-3 (Plasmodium falciparum 3D7, UniProt Q8IIL0); experiment: Inhibition of N-terminal 6His-tagged recombinant Plasmodium falciparum FP3 expressed in Escherichia coli M15 using Z-Phe-Arg-AMC as substrate measured after 30 mins by microplate reader analysis
T3 sequence (Q8IIL0 whole entry): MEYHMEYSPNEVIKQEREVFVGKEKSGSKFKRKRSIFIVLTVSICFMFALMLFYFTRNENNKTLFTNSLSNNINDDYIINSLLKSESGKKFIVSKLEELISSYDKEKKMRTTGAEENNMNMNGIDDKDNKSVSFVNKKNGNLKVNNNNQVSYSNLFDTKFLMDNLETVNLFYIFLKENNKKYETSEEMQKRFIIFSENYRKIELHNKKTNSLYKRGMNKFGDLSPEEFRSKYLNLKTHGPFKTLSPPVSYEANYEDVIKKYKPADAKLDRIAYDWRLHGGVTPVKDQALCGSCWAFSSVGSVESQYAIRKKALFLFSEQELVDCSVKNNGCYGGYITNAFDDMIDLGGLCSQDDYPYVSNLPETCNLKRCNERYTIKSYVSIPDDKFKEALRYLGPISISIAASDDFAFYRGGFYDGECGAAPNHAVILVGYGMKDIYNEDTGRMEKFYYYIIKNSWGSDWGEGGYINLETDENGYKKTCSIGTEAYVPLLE

[8] = Toxicity in mouse assessed as frequency of rearing activity at 200 mg/kg measured over 5 mins by open field arena test (reference value: 18.14 +/- 2.6 sec); assay type: organism-based; settings: in vivo
Hemozoin = experiment: Inhibition of beta-hematin formation in Plasmodium falciparum by UV-visible SpectraMax P340 plate reader analysis
Plasmodium falciparum [9] = experiment: Antimalarial activity against ring stage chloroquine-resistant Plasmodium falciparum RKL9 assessed as inhibition of parasite growth by SYBR green I dye based assay; assay type: functional, organism-based
Plasmodium berghei [10] = experiment: (§1) Antimalarial activity against Plasmodium berghei ANKA infected in BALB/c mouse assessed as clearance of gametocytes at 50 to 100 mg/kg, ip p preadministered with phenylhydrazine for 3 days followed by compound administration and measured after 5 days by Giemsa staining based light microscopic analysis relative to control; assay type: functional, organism-based; settings: dose 50-100 mg/kg, time 5.0 day
Plasmodium berghei [11] = experiment: Antimalarial activity against Plasmodium berghei ANKA infected in BALB/c mouse assessed as increase in survival at 50 to 100 mg/kg, ip p preadministered with phenylhydrazine for 3 days followed by compound administration and measured after 5 days; assay type: functional, organism-based; settings: dose 50-100 mg/kg, time 5.0 day
[12] = Toxicity in mouse assessed as cell apoptosis in spleen at 100 to 200 mg/kg measured after 7 days by hematoxylin and eosin staining based analysis; assay type: organism-based; settings: in vivo, 168 h, dose 100-200 mg/kg, time 7 day
Plasmodium berghei [13] = experiment: Antimalarial activity against Plasmodium berghei ANKA infected in female BALB/c mouse assessed as reduction in parasitemia at 100 mg/kg, ip measured on day 4 post infection by Giemsa staining based light microscopy (Rvb >17 %); assay type: functional; design: scale not given: the % may be the effect or the level left
[14] = molecular target: T4, Falcipain-3 (Plasmodium falciparum 3D7) (UniProt Q8IIL0); experiment: Binding affinity to N-terminal 6His-tagged recombinant Plasmodium falciparum FP3 expressed in Escherichia coli M15 assessed as dissociation rate constant (Koff) by surface plasmon resonance analysis
T4 sequence (whole entry): T3 sequence (Q8IIL0 whole entry)

[15] = Toxicity in mouse assessed as grooming time at 100 mg/kg by open field test (reference value: 10.91 +/- 2.01 sec); assay type: organism-based; settings: in vivo, 2 s
[16] = Toxicity in mouse assessed as cell apoptosis in liver at 100 to 200 mg/kg measured after 7 days by hematoxylin and eosin staining based analysis; assay type: organism-based; settings: in vivo, 168 h, dose 100-200 mg/kg, time 7 day
Falcipain 2 [17] = molecular target: T1, Falcipain 2; experiment: Binding affinity to N-terminal 6His-tagged recombinant Plasmodium falciparum FP2 expressed in Escherichia coli M15 assessed as dissociation constant by surface plasmon resonance analysis
Plasmodium berghei [18] = experiment: as §1, with “as reduction in gametocyte development” for “as clearance of gametocytes”, “ip” for “ip p”, “after 4” for “after 5”, “analysis” for “analysis relative to control”; assay type: functional, organism-based; settings: dose 50-100 mg/kg, time 4.0 day
[19] = Drug metabolism in human liver S9 fraction assessed as mono-hydroxylation mediated metabolite formation at 2 uM measured for 90 mins by LC-MS/MS analysis; assay type: ADME, subcellular; settings: s9, 1.5 h
[20] = Toxicity in mouse assessed as impairment of short-term memory at 100 mg/kg by novel object recognition test (reference value: 11.87 +/- 3.82 ); assay type: organism-based; settings: in vivo
[21] = Toxicity in mouse assessed as cell necrosis in spleen at 100 to 200 mg/kg measured after 7 days by hematoxylin and eosin staining based analysis; assay type: organism-based; settings: in vivo, 168 h, dose 100-200 mg/kg, time 7 day
[22] = Stability of the compound in simulated intestinal fluid at pH 6.8 at 1 uM measured after 120 mins by LC-MS/MS analysis; assay type: ADME; settings: simulated gi fluid, pH 6.8, 2 h

O=C(Cn1cc(CN2CCN(c3ccnc4cc(Cl)ccc34)CC2)nn1)Nc1cccc([N+](=O)[O-])c1
Activity (Plasmodium falciparum [1]): Active | Activity (Plasmodium falciparum [2]): Active | IC50 (Falcipain 2 [3]): 8.1 µM | K [4]: 0.097 s⁻¹ | Activity [5]: 1.889 | K [6]: 680 M⁻¹ s⁻¹ | Activity [7]: 10.75 m | IC50 (Falcipain-3): 31.8 µM | Activity [8]: 14.32 s | IC50 (Hemozoin): 19.9 µM | IC50 (Plasmodium falciparum [9]): 1.8 µM | Activity (Plasmodium berghei [10]): Active | Activity (Plasmodium berghei [11]): Active | Activity [12]: Non-Toxic | Activity (Plasmodium berghei [13]): 100% | K [14]: 0.305 s⁻¹ | Time [15]: 12.04 s | Activity [16]: Non-Toxic | Kd (Falcipain 2 [17]): 14 µM | Activity (Plasmodium berghei [18]): Active | Drug metabolism [19]: Metabolite_Detected | Activity [20]: 3.6 | Activity [21]: Non-Toxic | Stability [22]: Stable
